Measurements taken from ChEMBL document CHEMBL5104095, “Proteolysis targeting chimera (PROTAC) in drug discovery paradigm: Recent progress and future challenges” (Eur J Med Chem, 2021).
Values belong to the molecule of their own block, whether it stands above or below them.

Legend:
[1] = PROTAC activity at VHL/PRC2 in human HeLa cells assessed as induction of PRC2 degradation incubated for 24 hrs by Western blot analysis; format: cell-based
HeLa = test: PROTAC activity at VHL/PRC2 in human HeLa cells assessed as induction of PRC2 degradation incubated for 24 hrs by Western blot analysis relative to control; format: cell-based
PC-3 = test: Antiproliferative activity against human PC-3 cells assessed as inhibition of cell proliferation incubated for 48 hrs by CCK8 assay; format: functional, cell-based; conditions: PC-3, 48 h
[2] = target: Alpha-1A adrenergic receptor (Homo sapiens, UniProt P35348); test: PROTAC activity at CRBN/A1AR in human HEK293 cells assessed as induction of A1AR degradation incubated for 12 hrs by Western blot analysis; format: cell-based
[3] = target: Protein cereblon/Adenosine receptor A1 (Homo sapiens) (UniProt P30542+Q96SW2); test: PROTAC activity at CRBN/A1AR in human HEK293 cells assessed as induction of A1AR degradation at 10 micromol/L incubated for 12 hrs by Western blot analysis relative to control; format: cell-based; conditions: dose 10.0 µmol/L
[4] = target: Protein cereblon/Tyrosine-protein kinase BTK (Homo sapiens, UniProt Q06187+Q96SW2, C481S); test: PROTAC activity at CRBN/BTK C481S mutant transfected in human HeLa cells assessed as induction of BTK C481S degradation incubated for 4 days by immunoblot analysis; format: cell-based
Protein cereblon-NS3 = Protein cereblon-NS3 (Hepacivirus hominis, UniProt A3EZJ3+Q96SW2); test: PROTAC activity at CRBN/NS3 of HCV assessed as induction of NS3-eGFP-2A-mCherry degradation incubated for 4 hrs by flow cytometry
[5] = target: von Hippel-Lindau disease tumor suppressor/Cyclin-dependent kinase 6 (Homo sapiens, UniProt P40337+Q00534); test: PROTAC activity at VHL/CDK6 in human MM1.S cells assessed as induction of CDK6 degradation incubated for 16 hrs by Western blot analysis; format: cell-based
[6] = target: von Hippel-Lindau disease tumor suppressor/Cyclin-dependent kinase 4 (Homo sapiens, UniProt P11802+P40337); test: PROTAC activity at VHL/CDK4 in human MM1.S cells assessed as induction of […] degradation incubated for 16 hrs by Western blot analysis; format: cell-based
[7] = target: von Hippel-Lindau disease tumor suppressor/Cyclin-dependent kinase 6 (Homo sapiens) (UniProt Q00534+P40337); test: PROTAC activity at VHL/CDK6 in human MM1.S cells assessed as induction of CDK6 degradation at 0.1 to 1 uM incubated for 16 hrs by Western blot analysis relative to control; format: cell-based; conditions: dose 0.1-1 µM
[8] = target: T1, Protein cereblon/Tyrosine-protein kinase BTK (Homo sapiens, UniProt Q06187+Q96SW2); test: PROTAC activity at CRBN/BTK in human MINO cells assessed as reduction in BTK level incubated for 24 hrs by Western blot analysis; format: cell-based
[9] = target: T1, Protein cereblon/Tyrosine-protein kinase BTK; test: PROTAC activity at CRBN/BTK in human MINO cells assessed as reduction in BTK level incubated for 24 hrs by Western blot analysis relative to control; format: cell-based
[10] = target: von Hippel-Lindau disease tumor suppressor/Barrier-to-autointegration factor (Homo sapiens) (UniProt P40337+O75531); test: PROTAC activity at VHL/BAF in human MV4-11 cells assessed as induction of BAF degradation incubated for 18 hrs by Western blot analysis relative to control; format: cell-based
[11] = target: von Hippel-Lindau disease tumor suppressor/Barrier-to-autointegration factor (Homo sapiens, UniProt O75531+P40337); test: PROTAC activity at VHL/BAF in human MV4-11 cells assessed as induction of BAF degradation incubated for 18 hrs by Western blot analysis; format: cell-based
[12] = target: von Hippel-Lindau disease tumor suppressor/Mitogen-activated protein kinase 14 (Homo sapiens) (UniProt Q16539+P40337); test: PROTAC activity at VHL/p38alpha in human MDA-MB-231 cells assessed as induction of p38alpha degradation incubated for 24 hrs by Western blot analysis relative to control; format: cell-based
[13] = target: T2, von Hippel-Lindau disease tumor suppressor/Mitogen-activated protein kinase 14 (Homo sapiens, UniProt P40337+Q16539); test: PROTAC activity at VHL/p38alpha (unknown origin) assessed as dissociation constant by competitive binding assay
[14] = target: T2, von Hippel-Lindau disease tumor suppressor/Mitogen-activated protein kinase 14; test: PROTAC activity at VHL/p38alpha in human MDA-MB-231 cells assessed as induction of p38alpha degradation incubated for 24 hrs by Western blot analysis; format: cell-based
[15] = target: IAP-Tyrosine-protein kinase BTK (Homo sapiens, UniProt P98170+Q06187+Q13489+Q13490); test: PROTAC activity at IAP/BTK in human THP-1 cells assessed as reduction in BTK level incubated for 16 hrs by immunoblot analysis; format: cell-based

Chain of Protein cereblon-NS3 (A3EZJ3 whole entry): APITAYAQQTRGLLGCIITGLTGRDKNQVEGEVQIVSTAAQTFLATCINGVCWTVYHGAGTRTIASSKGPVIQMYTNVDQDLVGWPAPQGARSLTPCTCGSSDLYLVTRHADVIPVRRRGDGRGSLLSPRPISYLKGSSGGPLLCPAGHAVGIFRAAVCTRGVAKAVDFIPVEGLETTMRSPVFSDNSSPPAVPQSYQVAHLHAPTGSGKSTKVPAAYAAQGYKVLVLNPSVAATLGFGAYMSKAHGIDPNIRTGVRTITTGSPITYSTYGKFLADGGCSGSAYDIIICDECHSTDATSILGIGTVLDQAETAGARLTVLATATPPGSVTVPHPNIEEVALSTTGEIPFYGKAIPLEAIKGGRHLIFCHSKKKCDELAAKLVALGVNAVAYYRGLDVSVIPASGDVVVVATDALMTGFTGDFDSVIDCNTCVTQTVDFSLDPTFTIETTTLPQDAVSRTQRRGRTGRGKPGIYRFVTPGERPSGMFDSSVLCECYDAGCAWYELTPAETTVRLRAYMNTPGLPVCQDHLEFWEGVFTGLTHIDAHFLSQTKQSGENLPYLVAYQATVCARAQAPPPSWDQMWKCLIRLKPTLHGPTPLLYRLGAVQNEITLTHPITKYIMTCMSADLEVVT
Chain of Protein cereblon-NS3 (Q96SW2 whole entry): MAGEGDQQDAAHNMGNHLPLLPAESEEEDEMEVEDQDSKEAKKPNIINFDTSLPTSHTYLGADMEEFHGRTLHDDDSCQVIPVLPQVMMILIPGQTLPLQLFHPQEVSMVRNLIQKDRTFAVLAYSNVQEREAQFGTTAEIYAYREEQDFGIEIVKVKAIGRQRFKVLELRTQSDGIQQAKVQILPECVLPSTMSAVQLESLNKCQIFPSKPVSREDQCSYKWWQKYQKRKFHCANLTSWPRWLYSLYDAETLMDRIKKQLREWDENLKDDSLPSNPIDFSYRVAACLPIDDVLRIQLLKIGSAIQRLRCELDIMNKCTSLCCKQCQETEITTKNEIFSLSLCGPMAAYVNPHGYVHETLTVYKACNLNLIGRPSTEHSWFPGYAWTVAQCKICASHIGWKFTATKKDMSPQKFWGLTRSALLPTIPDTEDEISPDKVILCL
T2 sequence (Q16539 whole entry): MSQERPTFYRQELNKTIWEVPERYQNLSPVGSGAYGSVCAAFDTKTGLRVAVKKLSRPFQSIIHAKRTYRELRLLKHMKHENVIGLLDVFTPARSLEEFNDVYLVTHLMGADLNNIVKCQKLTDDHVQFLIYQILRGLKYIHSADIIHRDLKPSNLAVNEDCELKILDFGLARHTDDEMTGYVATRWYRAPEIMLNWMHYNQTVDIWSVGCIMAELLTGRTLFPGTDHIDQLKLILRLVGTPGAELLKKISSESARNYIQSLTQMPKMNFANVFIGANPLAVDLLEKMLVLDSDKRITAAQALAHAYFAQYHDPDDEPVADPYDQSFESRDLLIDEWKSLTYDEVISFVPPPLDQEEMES
T2 sequence (P40337 whole entry): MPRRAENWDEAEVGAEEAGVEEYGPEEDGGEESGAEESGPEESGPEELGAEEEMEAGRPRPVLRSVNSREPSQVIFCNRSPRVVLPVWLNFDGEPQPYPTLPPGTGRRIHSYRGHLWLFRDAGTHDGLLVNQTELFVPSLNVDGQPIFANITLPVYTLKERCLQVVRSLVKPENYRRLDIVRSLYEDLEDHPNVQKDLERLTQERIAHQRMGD
Chain of Protein cereblon/Adenosine receptor A1 (Homo sapiens) (P30542 whole entry, looked up): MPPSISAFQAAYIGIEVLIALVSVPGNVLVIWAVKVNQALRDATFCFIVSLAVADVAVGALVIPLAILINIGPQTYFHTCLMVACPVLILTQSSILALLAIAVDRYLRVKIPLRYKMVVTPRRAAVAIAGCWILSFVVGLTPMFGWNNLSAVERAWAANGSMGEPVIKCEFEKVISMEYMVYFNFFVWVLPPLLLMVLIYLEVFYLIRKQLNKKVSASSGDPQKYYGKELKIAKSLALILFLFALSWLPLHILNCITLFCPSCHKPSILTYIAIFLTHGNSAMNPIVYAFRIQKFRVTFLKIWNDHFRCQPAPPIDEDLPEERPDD
Chain of Protein cereblon/Adenosine receptor A1 (Homo sapiens) (Q96SW2 whole entry, looked up): as the sequence (Q96SW2 whole entry) above
Chain of von Hippel-Lindau disease tumor suppressor/Barrier-to-autointegration factor (Homo sapiens) (O75531 whole entry, looked up): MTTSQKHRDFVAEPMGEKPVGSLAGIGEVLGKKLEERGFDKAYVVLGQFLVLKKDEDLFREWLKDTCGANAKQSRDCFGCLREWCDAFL
Chain of von Hippel-Lindau disease tumor suppressor/Barrier-to-autointegration factor (Homo sapiens) (P40337 whole entry, looked up): as the sequence (P40337 whole entry) above
Chain of Protein cereblon/Tyrosine-protein kinase BTK (Homo sapiens, UniProt Q06187+Q96SW2, C481S) (Q06187 2-659 C481S limits assumed, stated change not applied): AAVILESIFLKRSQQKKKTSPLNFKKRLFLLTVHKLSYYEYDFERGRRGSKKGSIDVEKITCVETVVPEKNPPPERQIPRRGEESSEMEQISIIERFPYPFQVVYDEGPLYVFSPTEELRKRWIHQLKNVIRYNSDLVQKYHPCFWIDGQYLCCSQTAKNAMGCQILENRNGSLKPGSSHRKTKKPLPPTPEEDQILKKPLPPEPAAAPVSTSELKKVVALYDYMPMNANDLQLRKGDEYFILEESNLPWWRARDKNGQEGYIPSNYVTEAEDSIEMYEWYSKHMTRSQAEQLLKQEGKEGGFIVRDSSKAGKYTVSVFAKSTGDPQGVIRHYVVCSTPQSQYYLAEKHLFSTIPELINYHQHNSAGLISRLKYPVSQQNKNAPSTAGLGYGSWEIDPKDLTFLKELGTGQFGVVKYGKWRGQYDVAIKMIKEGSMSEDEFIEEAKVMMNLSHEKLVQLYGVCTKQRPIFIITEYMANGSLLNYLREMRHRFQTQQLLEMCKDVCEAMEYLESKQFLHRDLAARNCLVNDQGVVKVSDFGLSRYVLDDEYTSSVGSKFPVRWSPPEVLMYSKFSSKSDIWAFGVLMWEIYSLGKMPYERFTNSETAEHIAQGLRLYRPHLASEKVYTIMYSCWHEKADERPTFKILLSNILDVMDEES
Chain of Protein cereblon/Tyrosine-protein kinase BTK (Homo sapiens, UniProt Q06187+Q96SW2, C481S) (Q96SW2 whole entry, stated change not applied): as the sequence (Q96SW2 whole entry) above
Chain of Alpha-1A adrenergic receptor (P35348 whole entry, looked up): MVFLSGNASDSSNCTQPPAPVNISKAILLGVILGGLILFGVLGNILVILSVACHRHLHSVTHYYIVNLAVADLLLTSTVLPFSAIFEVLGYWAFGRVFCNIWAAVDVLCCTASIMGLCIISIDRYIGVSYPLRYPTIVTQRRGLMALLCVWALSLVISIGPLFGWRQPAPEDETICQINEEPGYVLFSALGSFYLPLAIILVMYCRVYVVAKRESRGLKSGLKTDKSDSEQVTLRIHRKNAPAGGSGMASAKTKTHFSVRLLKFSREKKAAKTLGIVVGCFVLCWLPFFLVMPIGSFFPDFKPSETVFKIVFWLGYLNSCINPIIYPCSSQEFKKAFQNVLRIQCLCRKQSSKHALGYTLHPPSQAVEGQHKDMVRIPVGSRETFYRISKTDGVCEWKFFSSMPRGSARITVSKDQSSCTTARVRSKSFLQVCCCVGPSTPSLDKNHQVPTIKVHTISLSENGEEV
Chain of von Hippel-Lindau disease tumor suppressor/Cyclin-dependent kinase 4 (P11802 whole entry): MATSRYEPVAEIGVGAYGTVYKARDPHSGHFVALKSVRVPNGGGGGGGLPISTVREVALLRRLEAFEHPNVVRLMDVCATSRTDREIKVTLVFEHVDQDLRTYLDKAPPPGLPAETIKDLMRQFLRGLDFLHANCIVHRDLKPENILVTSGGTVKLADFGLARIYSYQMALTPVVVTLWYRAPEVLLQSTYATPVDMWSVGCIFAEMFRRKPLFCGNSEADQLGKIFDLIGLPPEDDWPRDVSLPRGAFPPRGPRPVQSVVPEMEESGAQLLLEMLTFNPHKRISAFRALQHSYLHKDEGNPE
Chain of von Hippel-Lindau disease tumor suppressor/Cyclin-dependent kinase 4 (P40337 whole entry): as the sequence (P40337 whole entry) above

Structure (SMILES): COc1cc2nc(N3CCN(C(=O)c4cn(CCOCCOCCOCC(=O)Nc5cccc6c5C(=O)N(C5CCC(=O)NC5=O)C6=O)nn4)CC3)nc(N)c2cc1OC (stereo not given)
IC50 (PC-3): 6120 nM
EC50 [2]: 2860 nM
Emax [3]: 94%

Structure (SMILES): Nc1ncnc2c1c(-c1ccc(Oc3ccccc3)cc1)nn2[C@@H]1CCCN(C(=O)c2cn(CCOCCOCCOCCNc3cccc4c3C(=O)N(C3CCC(=O)NC3=O)C4=O)nn2)C1 (stereo not given in full)
EC50 [4]: 30 nM

Structure (SMILES): Nc1ncnc2c1c(-c1ccc(Oc3ccccc3)cc1)nn2[C@H]1CCCN(C(=O)CCCCCCOCCOCCOCCOCCOc2cccc3c2C(=O)N(C2CCC(=O)NC2=O)C3=O)C1 (stereo not given in full)
EC50 [8]: 2.2 nM
Emax [9]: 97%

Structure (SMILES): Cc1ncsc1-c1ccc(CNC(=O)[C@@H]2C[C@@H](O)CN2C(=O)[C@@H](NC(=O)C2(F)CC2)C(C)(C)C)c(OCCOc2ccc(CN3CCN(c4cc(-c5ccccc5O)nnc4N)CC3)cc2)c1
Emax [10]: > 65%
EC50 [11]: < 32 nM

Structure (SMILES): COc1cc2c(Oc3ccc(NC(=O)C4(C(=O)Nc5ccc(F)cc5)CC4)cc3F)cccc2cc1OCCCOCCCOCCC(=O)N[C@H](C(=O)N1C[C@H](O)C[C@H]1C(=O)NCc1ccc(-c2scnc2C)cc1)C(C)(C)C
Emax [12]: 91%
Kd [13]: 11000 nM
EC50 [14]: 210 nM

Structure (SMILES): CN[C@@H](C)C(=O)N[C@H](C(=O)N1C[C@@H](NC(=O)COCCOCCOCCOCCN2CCN(CCCC(=O)N3CCC[C@@H](n4nc(-c5ccc(Oc6ccccc6)cc5)c5c(N)ncnc54)C3)CC2)C[C@H]1C(=O)N[C@@H]1CCCc2ccccc21)C1CCCCC1
EC50 [15]: 200 nM

Structure (SMILES): CCC[C@H](NC(=O)[C@@H]1[C@H]2CCC[C@H]2CN1C(=O)[C@@H](NC(=O)[C@@H](NC(=O)c1cnc(C(=O)NCCOCCOCCOc2cc3c4c(cccc4c2)C(=O)N(C2CCC(=O)NC2=O)C3=O)cn1)C1CCCCC1)C(C)(C)C)C(=O)C(=O)NC1CC1 (stereo not given in full)
EC50 (Protein cereblon-NS3): 50 nM

Structure (SMILES): CCC[C@H](NC(=O)[C@@H]1[C@H]2CCC[C@H]2CN1C(=O)[C@@H](NC(=O)[C@@H](NC(=O)c1cnc(C(=O)NCCCCCCNc2cccc3c2CN(C2CCC(=O)NC2=O)C3=O)cn1)C1CCCCC1)C(C)(C)C)C(=O)C(=O)NC1CC1 (stereo not given in full)
EC50 (Protein cereblon-NS3): 669 nM

Further lines, with some results ahead:

EC50 [1]: < 700 nM
Structure (SMILES): Cc1ncsc1-c1ccc(CNC(=O)[C@@H]2C[C@@H](O)CN2C(=O)[C@@H](NC(=O)CCCNC(=O)c2ccc(-c3cnc(NCc4ccco4)n4cnnc34)cc2)C(C)(C)C)cc1
Emax (HeLa): > 80%

EC50 (Protein cereblon-NS3): 489 nM
Structure (SMILES): CCC[C@H](NC(=O)[C@@H]1[C@H]2CCC[C@H]2CN1C(=O)[C@@H](NC(=O)[C@@H](NC(=O)c1cnc(C(=O)NCCOCCOCCNc2cccc3c2C(=O)N(C2CCC(=O)NC2=O)C3=O)cn1)C1CCCCC1)C(C)(C)C)C(=O)C(=O)NC1CC1 (stereo not given in full)

EC50 [5]: 5.1 nM
EC50 [6]: 20 nM
Emax [7]: > 95%
Structure (SMILES): CC(=O)c1c(C)c2cnc(Nc3ccc(N4CCN(CCOCCOCCOc5cc(-c6scnc6C)ccc5CNC(=O)[C@H]5C[C@H](O)CN5C(=O)[C@@H](NC(=O)C5(F)CC5)C(C)(C)C)CC4)cn3)nc2n(C2CCCC2)c1=O
